Results taken from US20240376154A1, “BIS-INTERCALATING PEPTIDES, CONJUGATES AND METHODS OF USE” (ZYMEWORKS BC INC., priority 2023, published 2024).
Where a SMILES comes first, the peptide text is derived from it. Bridges are numbered along the chain shown (N, C = ends). Roman numbers before positions name the chains, in order. [ ]: non-standard residue; d: D form. The star is where a group is joined. Quinaldoyl(3-OH) = O=C(c1nc2ccccc2cc1O)*; NMeV = CN[C@H](C(=O)O)C(C)C; Pip = O=C(O)[C@@H]1CCCCN1; dDap = NC[C@@H](N)C(=O)O; Sar = CNCC(=O)O

Experiments:
[1] = Stability in female mouse plasma; assay type: in vitro ADME; conditions: 37° C., 24 h; for half-life at 1 μM: female, mouse, plasma; for plasma stability (in words): 1 μM
Procedure: The stability of exemplary compounds of general Formula I in mouse plasma was evaluated as follows.
Compounds were incubated at 1 μM in duplicate in female mouse plasma, 250 μL final volume, at 37° C. for 24 h. Aliquots were sampled at 0, 15, 30, 60, 120, 240, 480 and 1440 min. Proteins were precipitated by addition of 5 volumes of cold methanol. After centrifugation 10000×g for 10 min, the residual concentration of compound in the supernatant was measured using an appropriate LC-MS/MS method. The measured concentrations were expressed as a function of time through a one-phase decay exponential regression calculated using GraphPad Prism software (GraphPad Software, Inc.) to generate the plasma half-life for each compound.

[2] = tested on: tumour cells (at least 4 of a panel of ovarian, breast, lung, pancreatic, placenta, colon cell lines); assay: In vitro cytotoxicity (cell proliferation, CellTiter-Glo), average over tumour cell line panel; assay type: cell-based; conditions: for pIC50 (average): average pIC50 on all cell lines tested, 5 nights incubation, CellTiter-Glo
Summary of the method: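 Each cell line seeded at ~1000 cells/well and left to adhere overnight, then given a 10-point 1:3 compound titration for 5 nights at 37° C, 5% CO2. Viability read by CellTiter-Glo luminescence; IC50 per line, reported as pIC50 averaged across at least 4 lines.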

herring sperm DNA = assay: DNA melting temperature by differential scanning calorimetry (DSC); assay type: binding; conditions: DSC; herring sperm DNA; DNA melting temperature = 68° C.
Procedure: (§1) Representative compounds prepared as described in Example 2 were assessed in two complementary DNA-binding assays. Increased melting temperature of herring sperm DNA was measured using differential scanning calorimetry (DSC) and binding kinetics were determined by surface plasmon resonance (SPR) using a short DNA hairpin sequence.
DSC experiments were conducted as described in Leng, 2003, Nucleic Acids Res., 31 (21): […], using a Nano DSC (TA Instruments, New Castle, DE) and analyzed using the NanoAnalyze™ software package. Herring sperm DNA solution (Invitrogen 15634017, 10 mg/mL) was diluted to 1 mg/mL (1.4 mM base pair) in BPE buffer (6 mM Na2HPO4, 2 mM NaH2PO4, 1 mM Na4EDTA, pH 7.0). Test articles (20 μL, 10 mM in DMSO) were added and allowed reach equilibrium binding (>3 h), any insoluble material was removed by low-speed centrifugation, then samples were heated from 25 to 110° C. at a scan rate of 1° C./min. Melting curves were plotted and melting temperature was determined using NanoAnalyze™.

[3] = Lipophilicity by experimental HPLC retention time; assay type: physicochemical; conditions: HPLC retention time as measure of lipophilicity; C18, 10 to 90% CH3CN/H2O with 0.1% FA over 25 min
Summary of the method: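 Reversed-phase HPLC with diode array detection on a Kinetex EVO C18 150×4.6, 2.6 μm column. Gradient 10 to 90% CH3CN/H2O with 0.1% FA over 25 min; retention time serves as the lipophilicity measure.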

[4] = tested on: biotinylated hairpin DNA sequence 5'-GCATGCTTTTGCATGC; assay: DNA binding by surface plasmon resonance (SPR)
Procedure: as §1
SPR experiments were conducted at 25° C. using a Biacore™ T200 instrument and SA-Biotin chip. PBST Buffer: Gibco PBS, pH 7.4 was modified with Tween®20 (0.01%) and DMSO (2%). Immobilization: a short biotinylated hairpin DNA sequence 5′-GCATGCTTTTGCATGC (5′ biotin) (SEQ ID NO: 1) that contains two known sandramycin binding segments (in bold) was heated to 90° C., cooled to RT then immobilized to 700 RU. Bis-intercalating peptides at concentrations of 5, 2.5, 1.25, 0.625, and 0.312 μM in PBST were flowed over the chip at 20 μL/min with an association time of 600 s followed by dissociation for 600 s. Reference cell values were subtracted and binding constants ka, kd, and KD were determined using Biacore™ T200 Evaluation Software, version 3.0.

SMILES	half-life at 1 μM [1] [h]	pIC50 (average) [2]	DNA melt (° C.) (herring sperm DNA) [°C]	HPLC [3] [min]	plasma stability (in words) [1]	DNA binding via SPR (in words) [4]	activity in cell assays (in words) [2]	KD (mM) ([4]; SPR, 25° C., hairpin DNA)
CCOC(=O)[C@H](CCc1ccccc1)N[C@@H](C)C(=O)N1CCC[C@H]1C(=O)O [Enalapril, reference compound]	2.7							
CC(C)[C@H]1COC[C@@H](NC(=O)c2nc3ccccc3cc2O)C(=O)N2CCCC[C@H]2C(=O)NCC(=O)N(C)CC(=O)N(C)[C@@H](C(C)C)C(=O)NC[C@@H](NC(=O)c2nc3ccccc3cc2O)C(=O)N2CCCC[C@H]2C(=O)NCC(=O)N(C)CC(=O)N1C [Compound 178, N,N′-((7R,11S,19aS,26R,30S,38aS)-11,30-diisopropyl-12,15,31,34-tetramethyl-6,13,16,19,25,29,32,35,38-nonaoxotetratriacontahydro-2H,6H,10H-dipyrido[2,1-b1: 2′,1′-l][1]oxa[4,7,10,13,17,20,23,26,29]nonaazacyclodotriacontine-7,26-diyl)bis(3-hydroxyquinoline-2-carboxamide)]		8.1	92	18.4	stability over the course of the experiment			
CC(C)[C@@H]1NC(=O)CN(C)C(=O)CNC(=O)[C@@H]2CCCCN2C(=O)[C@H](NC(=O)c2nc3ccccc3cc2O)CNC(=O)[C@H](C(C)C)NC(=O)CN(C)C(=O)CNC(=O)[C@@H]2CCCCN2C(=O)[C@H](NC(=O)c2nc3ccccc3cc2O)CNC1=O [Compound 152] (I: {Quinaldoyl(3-OH)}-[dDap][Pip]G[Sar]V / II: {Quinaldoyl(3-OH)}-[dDap][Pip]G[Sar]V; amide I:1-II:C, I:C-II:1)		6.9		14.6		near complete loss of binding		
CCN1CC(=O)N(C)[C@@H](C(C)C)C(=O)NC[C@@H](NC(=O)c2nc3ccccc3cc2O)C(=O)N2CCCC[C@H]2C(=O)NCC(=O)N(CC)CC(=O)N(C)[C@@H](C(C)C)C(=O)NC[C@@H](NC(=O)c2nc3ccccc3cc2O)C(=O)N2CCCC[C@H]2C(=O)NCC1=O [Compound 132, N,N′-((7R,11S,19aS,26R,30S,38aS)-15,34-diethyl-11,30-diisopropyl-12,31-dimethyl-6,10,13,16,19,25,29,32,35,38-decaoxohexatriacontahydro-2H,6H-dipyrido[1,2-a:1′,2′-q][1,4,7,10,13,17,20,23,26,29]decaazacyclodotriacontine-7,26-diyl)bis(3-hydroxyquinoline-2-carboxamide)]		8.6		18.5	stability over the course of the experiment			
CC(C)[C@H]1C(=O)NC[C@@H](NC(=O)c2nc3ccccc3cc2O)C(=O)N2CCCC[C@H]2C(=O)NCC(=O)NCC(=O)N(C)[C@@H](C(C)C)C(=O)NC[C@@H](NC(=O)c2nc3ccccc3cc2O)C(=O)N2CCCC[C@H]2C(=O)NCC(=O)NCC(=O)N1C [Compound 137, N,N′-((7R,11S,19aS,26R,30S,38aS)-11,30-diisopropyl-12,31-dimethyl-6,10,13,16,19,25,29,32,35,38-decaoxohexatriacontahydro-2H,6H-dipyrido[1,2-a:1′,2′-q][1,4,7,10,13,17,20,23,26,29]decaazacyclodotriacontine-7,26-diyl)bis(3-hydroxyquinoline-2-carboxamide)] (I: {Quinaldoyl(3-OH)}-[dDap][Pip]GG[NMeV] / II: {Quinaldoyl(3-OH)}-[dDap][Pip]GG[NMeV]; amide I:1-II:C, I:C-II:1)		Inactive		15.1		did not demonstrate measurable DNA binding	inactive in cell assays	none
CC[C@H](C)[C@H]1C(=O)NC[C@@H](NC(=O)c2nc3ccccc3cc2O)C(=O)N2CCCC[C@H]2C(=O)NCC(=O)N(C)CC(=O)N(C)[C@@H]([C@@H](C)CC)C(=O)NC[C@@H](NC(=O)c2nc3ccccc3cc2O)C(=O)N2CCCC[C@H]2C(=O)NCC(=O)N(C)CC(=O)N1C [Compound 67, N,N′-((7R,11S,19aS,26R,30S,38aS)-11,30-di((S)-sec-butyl)-12,15,31,34-tetramethyl-6,10,13,16,19,25,29,32,35,38-decaoxohexatriacontahydro-2H,6H-dipyrido[1,2-a:1′,2′-q][1,4,7,10,13,17,20,23,26,29]decaazacyclodotriacontine-7,26-diyl)bis(3-hydroxyquinoline-2-carboxamide)]		8.6	91	18.8	stability over the course of the experiment			
CC[C@H](C)[C@H]1C(=O)NC[C@@H](NC(=O)c2nc3ccccc3cc2O)C(=O)N2CCCC[C@H]2C(=O)NCC(=O)N(C)CC(=O)N(C)[C@@H](C(C)C)C(=O)NC[C@@H](NC(=O)c2nc3ccccc3cc2O)C(=O)N2CCCC[C@H]2C(=O)NCC(=O)N(C)CC(=O)N1C [Compound 72]		7.6	89	18.0				
CC(C)[C@H]1C(=O)NC[C@@H](NC(=O)c2nc3ccccc3cc2O)C(=O)N2CCCC[C@H]2C(=O)NCC(=O)N(C)CC(=O)N(C)[C@@H]([C@@H](C)O)C(=O)NC[C@@H](NC(=O)c2nc3ccccc3cc2O)C(=O)N2CCCC[C@H]2C(=O)NCC(=O)N(C)CC(=O)N1C [Compound 55, N,N′-((7R,11S,19aS,26R,30S,38aS)-11-((R)-1-hydroxyethyl)-30-isopropyl-12,15,31,34-tetramethyl-6,10,13,16,19,25,29,32,35,38-decaoxohexatriacontahydro-2H,6H-dipyrido[1,2-a:1′,2′-q][1,4,7,10,13,17,20,23,26,29]decaazacyclodotriacontine-7,26-diyl)bis(3-hydroxyquinoline-2-carboxamide)]		inactive	86	10.6				
CC(C)[C@H]1C(=O)O[C@H](C)[C@@H](NC(=O)c2nc3ccccc3cc2O)C(=O)N2CCCC[C@H]2C(=O)NCC(=O)N(C)CC(=O)N(C)[C@@H](C(C)C)C(=O)O[C@H](C)[C@@H](NC(=O)c2nc3ccccc3cc2O)C(=O)N2CCCC[C@H]2C(=O)NCC(=O)N(C)CC(=O)N1C [Compound 22, N,N′-((7R,8R,11S,19aS,26R,27R,30S,38aS)-11,30-diisopropyl-8,12,15,27,31,34-hexamethyl-6,10,13,16,19,25,29,32,35,38-decaoxodotriacontahydro-2H,6H,10H,25H-dipyrido[2,1-b1: 2′,1′-l][1,17]dioxa[4,7,10,13,20,23,26,29]octaazacyclodotriacontine-7,26-diyl)bis(3-hydroxyquinoline-2-carboxamide)]		7.6	85	21.6				
CC(C)[C@H]1C(=O)NC[C@@H](NC(=O)c2nc3ccccc3cc2O)C(=O)N2CCCC[C@H]2C(=O)NCC(=O)N(C)CC(=O)N(C)[C@@H](C(C)C)C(=O)OC[C@@H](NC(=O)c2nc3ccccc3cc2O)C(=O)N2CCCC[C@H]2C(=O)NCC(=O)N(C)CC(=O)N1C [Compound 14, N,N′-((7R,11S,19aS,26R,30S,38aS)-11,30-diisopropyl-12,15,31,34-tetramethyl-6,10,13,16,19,25,29,32,35,38-decaoxotetratriacontahydro-2H,6H,10H-dipyrido[2,1-b1: 2′,1′-l][1]oxa[4,7,10,13,17,20,23,26,29]nonaazacyclodotriacontine-7,26-diyl)bis(3-hydroxyquinoline-2-carboxamide)]	12.3	8.5	97	19.6				
